# Measurements published in US11319298B2 (Merck Sharp & Dohme Corp., priority 2016, dated 2022).
# Biological target: T1, human M4 muscarinic acetylcholine receptor (Homo sapiens, UniProt P08173)
# T1 construct: expressed in transfected cells; host or cells: CHO-K1
# T1 sequence (P08173 1-479): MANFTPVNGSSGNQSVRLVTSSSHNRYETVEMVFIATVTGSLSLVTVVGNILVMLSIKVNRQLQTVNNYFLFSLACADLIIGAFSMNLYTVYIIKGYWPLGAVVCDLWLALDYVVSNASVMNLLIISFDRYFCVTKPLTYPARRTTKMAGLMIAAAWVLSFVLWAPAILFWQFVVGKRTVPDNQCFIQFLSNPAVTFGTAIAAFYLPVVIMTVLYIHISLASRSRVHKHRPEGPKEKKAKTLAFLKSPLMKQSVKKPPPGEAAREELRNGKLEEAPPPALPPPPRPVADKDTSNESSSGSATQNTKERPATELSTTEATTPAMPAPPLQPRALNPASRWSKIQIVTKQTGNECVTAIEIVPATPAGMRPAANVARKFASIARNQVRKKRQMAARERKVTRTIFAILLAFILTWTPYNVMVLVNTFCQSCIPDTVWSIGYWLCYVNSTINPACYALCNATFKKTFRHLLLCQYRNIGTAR
# Experiment: human FLIPR-based M4 PAM assay, CHO-K1 cells stably transfected with human M4 receptor and chimeric G-protein Gαqi5
# Format: cell-based
# Details: inflection point (IP) of dose response curve; acetylcholine added at 20% of maximum response; CHO-K1 human M4/Gαqi5, FLIPR Tetra
# How it was run: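 CHO-K1 cells were loaded with calcium dye at 37 °C for ~1 h. Fluorescence (ex 470–495/em 515–575 nm) was read for 4 min after test compound at increasing concentrations, then 3.5 min after acetylcholine at an EC20; sometimes a third addition at EC70 followed. The value is the inflection point of a 4-parameter logistic fit.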
row,EC50,SMILES
1,85 nM,"Cc1cc(C(=O)NC2C3CC2C3)nnc1N1CCC(Oc2cccc(C#N)c2)CC1 (stereo not shown) [Example 117, N-bicyclo[1.1.1]pent-2-yl-6-[4-(3-cyanophenoxy)piperidin-1-yl]-5-methylpyridazine-3-carboxamide]"
2,86 nM,"COc1ccc(OC2CCN(c3nnc(C(=O)NCc4cnn[nH]4)cc3C)CC2)cn1 [Example 118, 6-{4-[(6-methoxypyridin-3-yl)oxy]piperidin-1-yl}-5-methyl-N-(1H-1,2,3-triazol-5-ylmethyl)pyridazine-3-carboxamide]"
3,95 nM,"COc1ccc(OC2CCN(c3nnc(C(=O)NCc4ccn[nH]4)cc3C)CC2)cn1 [Example 119, 6-{4-[(6-methoxypyridin-3-yl)oxy]piperidin-1-yl}-5-methyl-N-(1H-pyrazol-5-ylmethyl)pyridazine-3-carboxamide]"
4,96 nM,"COc1ccc(OC2CCN(c3nnc(C(=O)Nc4ccncc4)cc3C)CC2)cn1 [Example 120, 6-{4-[(6-methoxypyridin-3-yl)oxy]piperidin-1-yl}-5-methyl-N-pyridin-4-ylpyridazine-3-carboxamide]"
5,99 nM,"COc1ccc(OC2CCN(c3nnc(C(=O)NCc4ccncc4C)cc3C)CC2)cn1 [Example 121, 6-{4-[(6-methoxypyridin-3-yl)oxy]piperidin-1-yl}-5-methyl-N-[(3-methylpyridin-4-yl)methyl]pyridazine-3-carboxamide]"
6,101 nM,"Cc1cc(C(=O)NCc2ccncc2)nnc1N1CCC(Oc2cccnc2)CC1 [Example 122, 5-methyl-N-(pyridin-4-ylmethyl)-6-[4-(pyridin-3-yloxy)piperidin-1-yl]pyridazine-3-carboxamide]"
7,101 nM,"COc1ccc(OC2CCN(c3nnc(C(=O)NCCc4cn[nH]c4)cc3C)CC2)cn1 [Example 123, 6-{4-[(6-methoxypyridin-3-yl)oxy]piperidin-1-yl}-5-methyl-N-[2-(1H-pyrazol-4-yl)ethyl]pyridazine-3-carboxamide]"
8,101 nM,"Cc1cc(C(=O)NC2C3CC2C3)nnc1N1CCC(Oc2ccc3[nH]ncc3c2)CC1 (stereo not shown) [Example 124, N-bicyclo[1.1.1]pent-2-yl-6-[4-(1H-indazol-5-yloxy)piperidin-1-yl]-5-methylpyridazine-3-carboxamide]"
9,102 nM,"COc1ccc(O[C@@H]2CCN(c3nnc(C(=O)NCc4ccncc4)cc3C)C[C@@H]2F)cn1 [Example 125, 6-{(3S,4R)-3-fluoro-4-[(6-methoxypyridin-3-yl)oxy]piperidin-1-yl}-5-methyl-N-(pyridin-4-ylmethyl)pyridazine-3-carboxamide]"
10,110 nM,"COc1ccc(OC2CCN(c3nnc(C(=O)N[C@@H]4CCc5cccnc5C4)cc3C)CC2)cn1 [Example 126A, (R)-6-{4-[(6-methoxypyridin-3-yl)oxy]piperidin-1-yl}-5-methyl-N-(5,6,7,8-tetrahydroquinolin-7-yl)pyridazine-3-carboxamide]"
11,159 nM,"COc1ccc(OC2CCN(c3nnc(C(=O)N[C@H]4CCc5cccnc5C4)cc3C)CC2)cn1 [Example 126B, (S)-6-{4-[(6-methoxypyridin-3-yl)oxy]piperidin-1-yl}-5-methyl-N-(5,6,7,8-tetrahydroquinolin-7-yl)pyridazine-3-carboxamide]"
12,114 nM,"COc1ccc(OC2CCN(c3nnc(C(N)=O)cc3C)CC2)cn1 [Example 127, 6-{4-[(6-methoxypyridin-3-yl)oxy]piperidin-1-yl}-5-methylpyridazine-3-carboxamide]"
13,121 nM,"CONC(=O)c1cc(C)c(N2CCC(Oc3ccc(OC)nc3)CC2)nn1 [Example 128, N-methoxy-6-{4-[(6-methoxypyridin-3-yl)oxy]piperidin-1-yl}-5-methylpyridazine-3-carboxamide]"
14,121 nM,"CNC(=O)c1cc(C)c(N2CCC(Oc3ccc(OC)nc3)CC2)nn1 [Example 129, 6-{4-[(6-methoxypyridin-3-yl)oxy]piperidin-1-yl}-N,5-dimethylpyridazine-3-carboxamide]"
15,125 nM,"Cc1cc(C(=O)N[C@H]2CCc3ncccc3C2)nnc1N1CCC(Oc2cccc(C#N)c2)CC1 [Example 130A, (S)-6-[4-(3-cyanophenoxy)piperidin-1-yl]-5-methyl-N-(5,6,7,8-tetrahydroquinolin-6-yl)pyridazine-3-carboxamide]"
16,254 nM,"Cc1cc(C(=O)N[C@@H]2CCc3ncccc3C2)nnc1N1CCC(Oc2cccc(C#N)c2)CC1 [Example 130B, (R)-6-[4-(3-cyanophenoxy)piperidin-1-yl]-5-methyl-N-(5,6,7,8-tetrahydroquinolin-6-yl)pyridazine-3-carboxamide]"
17,127 nM,"Cc1cc(C(=O)NC2C3CC2C3)nnc1N1CCC(Oc2ccc3c(c2)OCCO3)CC1 (stereo not shown) [Example 131, N-bicyclo[1.1.1]pent-2-yl-6-[4-(2,3-dihydro-1,4-benzodioxin-6-yloxy)piperidin-1-yl]-5-methylpyridazine-3-carboxamide]"
18,139 nM,"CONC(=O)c1cc(C)c(N2CCC(Oc3cccc(C#N)c3)CC2)nn1 [Example 132, 6-[4-(3-cyanophenoxy)piperidin-1-yl]-N-methoxy-5-methypyridazine-3-carboxamide]"
19,142 nM,"Cc1cc(C(=O)NC2CCc3ncccc3C2)nnc1N1CCC(OCC2CC2)CC1 (stereo not shown) [Example 133, 6-[4-(cyclopropylmethoxy)piperidin-1-yl]-5-methyl-N-(5,6,7,8-tetrahydroquinolin-6-yl)pyridazine-3-carboxamide]"
20,151 nM,"COc1ccc(OC2CCN(c3nnc(C(=O)NCc4ccn(C)n4)cc3C)CC2)cn1 [Example 134, 6-{4-[(6-methoxypyridin-3-yl)oxy]piperidin-1-yl}-5-methyl-N-[(1-methyl-1H-pyrazol-3-yl)methyl]pyridazine-3-carboxamide]"
21,158 nM,"Cc1cc(C(=O)NCc2ccncc2)nnc1N1CCC(Oc2ccc3c(c2)C(=O)N(C)C3)CC1 [Example 135, 5-methyl-6-{4-[(2-methyl-3-oxo-2,3-dihydro-1H-isoindol-5-yl)oxy]piperidin-1-yl}-N-(pyridin-4-ylmethyl)pyridazine-3-carboxamide]"
22,173 nM,"COc1ccc(OC2CCN(c3nnc(C(=O)NC4CCc5cccnc5C4)cc3C)CC2)cn1 (stereo not shown) [Example 136, 6-{4-[(6-methoxypyridin-3-yl)oxy]piperidin-1-yl}-5-methyl-N-(5,6,7,8-tetrahydroquinolin-7-yl)pyridazine-3-carboxamide]"
23,175 nM,"COc1ccc(OC2CCN(c3nnc(C(=O)Nc4cccnc4)cc3C)CC2)cn1 [Example 137, 6-{4-[(6-methoxypyridin-3-yl)oxy]piperidin-1-yl}-5-methyl-N-pyridin-3-ylpyridazine-3-carboxamide]"
24,177 nM,"COc1ccc(O[C@@H]2CCN(c3nnc(C(=O)N[C@H]4CCc5ncccc5C4)cc3C)C[C@@H]2F)cn1 [Example 138A, 6-((3S,4R)-3-fluoro-4-((6-methoxypyridin-3-yl)oxy)piperidin-1-yl)-5-methyl-N-((S)-5,6,7,8-tetrahydroquinolin-6-yl)pyridazine-3-carboxamide]"
25,243 nM,"COc1ccc(O[C@@H]2CCN(c3nnc(C(=O)N[C@@H]4CCc5ncccc5C4)cc3C)C[C@@H]2F)cn1 [Example 138B, 6-((3S,4R)-3-fluoro-4-((6-methoxypyridin-3-yl)oxy)piperidin-1-yl)-5-methyl-N-((R)-5,6,7,8-tetrahydroquinolin-6-yl)pyridazine-3-carboxamide]"
